Test results: patent US20100204246A1, “5-AMINOPYRAZOL-3-YL-3H-IMIDAZO (4,5-B) PYRIDINE DERIVATIVES AND THEIR USE FOR THE TREATMENT OF CANCER” (AstraZeneca AB, priority 2007, published 2010)

Each molecule was assayed against T1, human Trk A kinase (Homo sapiens, UniProt P04629) (assay: Trk A kinase assay (Alphascreen, phosphorylation of PolyEY-biotin substrate)). Conditions: 0.838 ng/ml Trk A, 70 μM ATP, 20 minutes, room temperature; read-out: IC50 (Trk inhibitory activity).
T1 construct: HIS; made in house; host or cells: SF9 cells
T1 sequence (P04629 442-796): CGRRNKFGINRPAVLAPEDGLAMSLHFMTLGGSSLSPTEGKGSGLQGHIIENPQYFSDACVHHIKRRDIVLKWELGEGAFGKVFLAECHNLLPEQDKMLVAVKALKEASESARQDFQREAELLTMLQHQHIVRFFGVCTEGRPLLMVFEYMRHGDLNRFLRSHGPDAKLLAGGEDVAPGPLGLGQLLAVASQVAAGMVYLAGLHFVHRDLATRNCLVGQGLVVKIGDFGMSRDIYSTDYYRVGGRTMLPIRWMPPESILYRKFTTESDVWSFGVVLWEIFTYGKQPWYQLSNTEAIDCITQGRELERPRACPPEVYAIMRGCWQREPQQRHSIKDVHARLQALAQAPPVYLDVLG
Format: biochemical
Description: Trk A kinase activity was determined by measuring the kinase's ability to phosphorylate synthetic tyrosine residues within a generic polypeptide substrate using an Amplified Luminescent Proximity Assay (Alphascreen) technology (PerkinElmer, 549 Albany Street, Boston, Mass.).
To measure Trk A kinase activity, the intracellular domain of a HIS-tagged human Trk A kinase (amino acids 442-796 of Trk A, Swiss-Prot Primary Accession Number P04629) may be expressed in SF9 cells and purified using standard nickel column chromatography. After incubation of the kinase with a biotinylated substrate and adenosine triphosphate (ATP) for 20 minutes at room temperature, the kinase reaction may be stopped by the addition of 30 mM ethylenediaminetetraacetic acid (EDTA). The reaction may be performed in 384 well microtitre plates and the reaction products may be detected with the addition of strepavidin coated Donor Beads and phosphotyrosine-specific antibodies coated Acceptor Beads using the EnVision Multilabel Plate Reader after an overnight incubation at room temperature.
Work on `Cc1cc(Nc2nc3c(cc2F)ncn3Cc2ncc(F)cc2F)n[nH]1` [Example 17, 3-[(3,5-Difluoropyridin-2-yl)methyl]-6-fluoro-N-(5-methyl-1H-pyrazol-3-yl)-3H-imidazo[4,5-b]pyridin-5-amine] yielded an IC50 of 283 nM.
With `COc1cc(Nc2nc3c(cc2F)ncn3[C@@H](C)c2ncc(F)cn2)n[nH]1` [Example 7, 6-Fluoro-3-[(1S)-1-(5-fluoropyrimidin-2-yl)-ethyl]-N-(5-methoxy-1H-pyrazol-3-yl)-3H-imidazo[4,5-b]pyridin-5-amine] the IC50 was 3 nM.
In the case of `Cc1cc(Nc2nc3c(cc2F)ncn3[C@@H](C)c2ncc(F)cn2)n[nH]1` [Example 12, 6-Fluoro-3-[(1S)-1-(5-fluoropyrimidin-2-yl)ethyl]-N-(5-methy 1-1H-pyrazol-3-yl)-3H-imidazo[4,5-b]pyridin-5-amine], the IC50 is reported as 66 nM.
`COc1cc(Nc2nc3c(cc2F)ncn3[C@@H](C)c2ccc(F)cn2)n[nH]1` [Example 11, 6-Fluoro-3-[(1S)-1-(5-fluoropyridin-2-yl)-ethyl]-N-(5-methoxy-1H-pyrazol-3-yl)-3H-imidazol-[4,5-b]pyridin-5-amine] was tested, and the IC50 was 3 nM.
`Cc1cc(Nc2nc3c(cc2F)ncn3[C@@H](C)c2ccc(F)cn2)n[nH]1` [Example 13, 6-Fluoro-3-[(1S)-1-(5-fluoropyridin-2-yl)ethyl]-N-(5-methyl-1H-pyrazol-3-yl)-3H-imidazo[4,5-b]pyridin-5-amine] gave an IC50 of 21 nM.
For `CC(C)Oc1cc(Nc2nc3c(cc2F)ncn3[C@@H](C)c2ncc(F)cn2)n[nH]1` [Example 6, 6-Fluoro-3-[(1S)-1-(5-fluoropyrimidin-2-yl)-ethyl]-N-(5-isopropoxy-1H-pyrazol-3-yl)-3H-imidazo[4,5-b]pyridin-5-amine], the IC50 was 3 nM.
Work on `CC(C)Oc1cc(Nc2nc3c(cc2F)ncn3[C@@H](C)c2ccc(F)cn2)n[nH]1` [Example 4, 6-Fluoro-3-[(1S)-1-(5-fluoropyridin-2-yl)-ethyl]-N-(5-isopropoxy-1H-pyrazol-3-yl)-3H-imidazo[4,5-b]pyridin-5-amine] yielded an IC50 of 3 nM.
With `CCOc1cc(Nc2nc3c(cc2F)ncn3[C@@H](C)c2ccc(F)cn2)n[nH]1` [Example 3, N-(5-Ethoxy-1H-pyrazol-3-yl)-6-fluoro-3-[(1S)-1-(5-fluoropyridin-2-yl)-ethyl]-3H-imidazo[4,5-b]pyridin-5-amine] the IC50 was 3 nM.
Molecule `Cc1cc(Nc2nc3c(cc2F)nc(C)n3[C@@H](C)c2ncc(F)cn2)n[nH]1` [Example 15, 6-Fluoro-3-[(1S)-1-(5-fluoropyrimidin-2-yl)ethyl]-2-methyl-N-(5-methyl-1H-pyrazol-3-yl)-3H-imidazo[4,5-b]pyridin-5-amine] has an IC50 of 9350 nM.
Work on `Cc1cc(Nc2nc3c(cc2F)nc(C)n3Cc2ncc(F)cc2F)n[nH]1` [Example 18, 3-[(3,5-Difluoropyridin-2-yl)methyl]-6-fluoro-2-methyl-N-(5-methyl-1H-pyrazol-3-yl)-3H-imidazo[4,5-b]pyridin-5-amine] yielded an IC50 of 393 nM.
Molecule `Cc1cc(Nc2nc3c(cc2F)ncn3[C@@H](CO)c2ccc(F)cn2)n[nH]1` [Example 16, (2R)-2-{6-Fluoro-5-[(5-methyl-1H-pyrazol-3-yl)amino]-3H-imidazo[4,5-b]pyridin-3-yl}-2-(5-fluoropyridin-2-yl)ethanol] has an IC50 of 73 nM.
Work on `C[C@@H](c1ccc(F)cn1)n1cnc2ccc(Nc3cc(C4CC4)[nH]n3)nc21` [Example 2, N-(5-Cyclopropyl-1H-pyrazol-3-yl)-3-[(1S)-1-(5-fluoropyridin-2-yl)ethyl]-3H-imidazo[4,5-b]pyridin-5-amine] yielded an IC50 of 23 nM.
Molecule `C[C@@H](c1ncc(F)cn1)n1cnc2cc(F)c(Nc3cc(C4CC4)[nH]n3)nc21` [Example 5, N-(5-Cyclopropyl-1H-pyrazol-3-yl)-6-fluoro-3-[(1S)-1-(5-fluoropyrimidin-2-yl)-ethyl]-3H-imidazo[4,5-b]pyridin-5-amine] has an IC50 of 3 nM.
In the case of `C[C@@H](c1ccc(F)cn1)n1cnc2cc(F)c(Nc3cc(C4CC4)[nH]n3)nc21` [Example 1, N-(5-Cyclopropyl-1H-pyrazol-3-yl)-6-fluoro-3-[(1S)-1-(5-fluoropyridin-2-yl)-ethyl]-3H-imidazo[4,5-b]-pyridin-5-amine], the IC50 is reported as 3 nM.
Molecule `CC(C)Oc1cc(Nc2nc3c(cc2F)ncn3[C@@H](CO)c2ccc(F)cn2)n[nH]1` [Example 8, (2R)-2-{6-Fluoro-5-[(5-isopropoxy-1H-pyrazol-3-yl)-amino]-3H-imidazo[4,5-b]pyridine-3-yl}-2-(5-fluoropyridin-2-yl)-ethanol] has an IC50 of 3 nM.
Molecule `COc1cc(Nc2nc3c(cc2F)ncn3[C@@H](CO)c2ccc(F)cn2)n[nH]1` [Example 9, (2R)-2-{6-Fluoro-5-[(5-methoxy-1H-pyrazol-3-yl)-amino]-3H-imidazo[4,5-b]pyridin-3-yl}-2-(5-fluoropyridin-2-yl)-ethanol] has an IC50 of 3 nM.
For `Cc1cc(Nc2nc3c(cc2F)[nH]c(=O)n3[C@@H](C)c2ncc(F)cn2)n[nH]1` [Example 14, 6-Fluoro-3-[(1S)-1-(5-fluoropyrimidin-2-yl)ethyl]-5-[(5-methyl-1H-pyrazol-3-yl)amino]-1,3-dihydro-2H-imidazo[4,5-b]pyridin-2-one], the IC50 was 3300 nM.
Work on `CCOc1cc(Nc2nc3c(cc2F)ncn3[C@@H](CO)c2ccc(F)cn2)n[nH]1` [Example 10, (2R)-2-{5-[(5-Ethoxy-1H-pyrazol-3-yl)-amino]-6-fluoro-3H-imidazo[4,5-b]pyridin-3-yl}-2-(5-fluoropyridin-2-yl)-ethanol] yielded an IC50 of 3 nM.

Each molecule was assayed against T2, human JAK2 (Homo sapiens, UniProt O60674) (assay: JAK2 kinase assay (Alphascreen, phosphorylation of biotinylated peptide substrate)). Conditions: 150pM JAK2 enzyme, 30 μM ATP, 60 minutes, room temperature; read-out: IC50 (JAK inhibitory activity).
T2 construct: human JAK2, amino acids 808-end; His6 (C); purchased Upstate Biotechnology; host or cells: baculovirus in Sf21 cells
T2 sequence (O60674 808-1132 limits assumed): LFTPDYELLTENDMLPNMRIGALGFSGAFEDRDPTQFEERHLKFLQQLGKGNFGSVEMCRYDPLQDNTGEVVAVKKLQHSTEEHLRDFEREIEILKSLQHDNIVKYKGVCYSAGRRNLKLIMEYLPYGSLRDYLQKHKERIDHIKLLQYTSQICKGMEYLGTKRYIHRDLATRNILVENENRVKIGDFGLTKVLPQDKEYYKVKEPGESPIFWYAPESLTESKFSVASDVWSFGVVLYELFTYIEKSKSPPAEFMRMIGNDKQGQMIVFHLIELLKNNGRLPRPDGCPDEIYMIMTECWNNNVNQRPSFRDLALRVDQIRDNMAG
Format: biochemical
Description: JAK2 kinase activity was determined by measuring the kinase's ability to phosphorylate synthetic tyrosine residues within a generic polypeptide substrate using an Amplified Luminescent Proximity Assay (Alphascreen) technology (PerkinElmer, 549 Albany Street, Boston, Mass.).
To measure JAK2 kinase activity, a commercially available purified enzyme may be used. The enzyme may be a C-terminal His6-tagged, recombinant, human JAK2, amino acids 808-end, (Genbank Accession number NM 004972) expressed by baculovirus in Sf21 cells (Upstate Biotechnology MA). After incubation of the kinase with a biotinylated substrate and adenosine triphosphate (ATP) for 60 minutes at room temperature, the kinase reaction may be stopped by the addition of 30 mM ethylenediaminetetraacetic acid (EDTA). The reaction may be performed in 384 well microtitre plates and the reaction products may be detected with the addition of streptavidin coated Donor Beads and phosphotyrosine-specific antibodies coated Acceptor Beads using the EnVision Multilabel Plate Reader after an overnight incubation at room temperature.
Molecule `CCOc1cc(Nc2nc3c(cc2F)ncn3[C@@H](C)c2ccc(F)cn2)n[nH]1` [Example 3, N-(5-Ethoxy-1H-pyrazol-3-yl)-6-fluoro-3-[(1S)-1-(5-fluoropyridin-2-yl)-ethyl]-3H-imidazo[4,5-b]pyridin-5-amine] has an IC50 of 11 nM.
